Laboratory results reported in patent publication US7776903B2, “Pharmaceutical preparations containing substituted 2,5-diaminomethyl-1H-pyrroles” (priority 2002, dated 2010).
pKi: −log10 of the molar value. Like-named read-outs stand apart in the source and are kept apart here.

What was measured:
NA transporter = target: T1, NA transporter (Rattus norvegicus, UniProt Q63380); test: Noradrenalin uptake inhibition in rat brain synaptosomes (hypothalamus); assay type: biochemical; conditions: conc. 10 (unit not given), [3H]-NA, 7.5 minutes
T1 construct: Synaptosomes from rat brain regions were freshly isolated; from tissue; host or cells: rat brain synaptosomes (hypothalamus)
Excerpt: (§1) c) Method for Determining Noradrenalin and the 5-HT Uptake Inhibition:
(§2) Synaptosomes from rat brain regions were freshly isolated for in vitro studies, as described in the publication “The isolation of nerve endings from brain” by E. G. Gray and V. P. Whittaker, J. Anatomy 96, pages 79-88, 1962. The corresponding literature description is hereby introduced as a reference and is deemed to be part of the disclosure.
(§3) The tissue (hypothalamus for the determination of noradrenalin uptake inhibition and medulla and pons for the determination of 5-HT uptake inhibition) was homogenised in ice-cooled 0.32 M sucrose (100 mg of tissue/1 mL) in a glass homogeniser with teflon pestle using five complete up and down strokes at 840 revolutions/minute.
(§4) The homogenate was centrifuged at 4° C. for 10 minutes at 1000 g. After subsequent centrifugation at 17000 g for 55 minutes, the synaptosomes (P2 fraction) were obtained, which were resuspended in 0.32 M glucose (0.5 mL/100 mg of original weight).
(§5) The particular uptake was measured in a 96-well microtitre plate. The volume was 250 μl and the incubation proceeded at room temperature (approx. 20-25° C.) under an O2 atmosphere.
(§6) The incubation time was 7.5 minutes for [^3H]-NA and 5 minutes for [^3H]-5-HT. The 96 samples were then filtered through a Unifilter GF/B® microtitre plate (Packard) and washed with […] of incubated buffer using a “Brabdel MPXR1-96T Cell-Harvester”. The Unifilter GF/B plate was dried for 1 hour at 55° C. The plate was then sealed with a Back seal® (Packard) and 35 μl of scintillation fluid were added per well (Ultima gold®, Packard). After sealing with a top seal® (Packard) and establishment of equilibrium (around 5 hours), radioactivity was determined in a “Trilux 1450 Microbeta” (Wallac).
The following characteristics were determined for the NA transporter: NA uptake: Km=0.32±0.11 μM
(§7) The quantity of protein used in the above determination corresponded to the values known from the literature, as for example described in “Protein measurement with the folin phenol reagent”, Lowry et al., J. Biol. Chem., 193, 265-275, 1951. A detailed description of the method may also be found in the literature, for example in M. Ch. Frink, H.-H. Hennies, W. Engelberger, M. Haurand and B. Wilffert (1996) Arzneim.-Forsch./Drug Res. 46 (III), 11, 1029-1036. The corresponding literature descriptions are hereby introduced as a reference and are deemed to be part of the disclosure.

5-HT uptake = target: T2, 5-HT uptake (Rattus norvegicus, UniProt P31652); test: 5-HT uptake inhibition in rat brain synaptosomes (medulla and pons); assay type: biochemical; conditions: conc. 10 (unit not given), [3H]-5-HT, 5 minutes
T2 construct: Synaptosomes from rat brain regions were freshly isolated; from tissue; host or cells: rat brain synaptosomes (medulla and pons)
Excerpt: as §1, §2, §3, §4, §5, §6, §7

human μ opiate receptor = human μ opiate receptor (Homo sapiens, UniProt P35372); test: Human μ opiate receptor binding assay with [3H]-naloxone, CHO-K1 membrane preparation; conditions: for inhibition at 1 µM: read-out: Human ORm Nal inhibition [%]
Method: b) Method for Determining Affinity for the Human μ opiate receptor
Receptor affinity for the human μ opiate receptor is determined in a homogeneous batch in microtitre plates. To this end, dilution series of the particular substituted 2,5-diaminomethyl-1H-pyrrole to be tested were incubated at room temperature for 90 minutes in a total volume of 250 μl with a receptor membrane preparation (15-40 μg of protein per 250 μl of incubation batch) of CHO-K1 cells, which express the human μ opiate receptor (RB-HOM receptor membrane preparation from NEN, Zaventem, Belgium) in the presence of 1 nmol/l of the radioactive ligand [^3H]-naloxone (NET719, from NEN, Zaventem, Belgium) and of 1 mg of WGA-SPA beads (wheat germ agglutinin SPA beads from Amersham/Pharmacia, Freiburg, Germany). The incubation buffer used is 50 mmol/l tris-HCl supplemented with 0.05 wt. % of sodium azide and with 0.06 wt. % of bovine serum albumin. 25 μmol/l of naloxone were additionally added to determine nonspecific binding. Once the ninety minute incubation time had elapsed, the microtitre plates were centrifuged off for 20 minutes at 1000 g and the radioactivity measured in a β-Counter (Microbeta-Trilux, from PerkinElmer Wallac, Freiburg, Germany. The percentage displacement of the radioactive ligand from its binding to the human μ opiate receptor was determined at a concentration of the substances to be tested of 1 μmol/l and stated as percentage inhibition of specific binding. On the basis of the percentage displacement by different concentrations of the compounds to be tested of the general formula I, IC50 inhibition concentrations which bring about 50% displacement of the radioactive ligand were calculated. Ki values for the test substances were obtained by conversion using the Cheng-Prusoff equation.

ORL-1 receptor = target: T3, ORL-1 receptor (Homo sapiens, UniProt P41146); test: ORL-1 receptor binding assay with 3H-nociceptin/Orphanin FQ, membranes of recombinant CHO-ORL1 cells; conditions: 3H-nociceptin/Orphanin FQ 0.5 nM
T3 construct: expressed in transfected cells; host or cells: CHO (CHO-ORL1)
Method: a) Method for Determining Affinity for the ORL-1 Receptor
The affinity of the particular substituted 2,5-diaminomethyl-1H-pyrrole of the general formula I for the ORL-1 receptor was determined in a receptor binding assay with ^3H-nociceptin/Orphanin FQ with membranes of recombinant CHO-ORL1 cells, as described by Ardati et al. in Mol. Pharmacol., 51, 1997, pages 816-824. The corresponding literature description is hereby introduced as a reference and is deemed to be part of the disclosure.
The concentration of ^3H-nociceptin/Orphanin FQ in these tests was 0.5 nM. The binding assays were in each case performed with 20 μg of membrane protein per 200 μl batch in 50 mM Hepes, pH 7.4, 10 mM MgCl2 and 1 mM EDTA. Binding to the ORL1 receptor was determined using 1 mg portions of WGA-SPA Beads (Amersham-Pharmacia, Freiburg, Germany), by one hour's incubation of the batch at room temperature (approx. 20-25° C.) and subsequent measurement in a Trilux scintillation counter (Wallac, Finland).

[1] = [3H]-naloxone, from IC50 by Cheng-Prusoff equation, read-out: Human ORm Nal Ki

Chain of human μ opiate receptor (P35372 whole entry): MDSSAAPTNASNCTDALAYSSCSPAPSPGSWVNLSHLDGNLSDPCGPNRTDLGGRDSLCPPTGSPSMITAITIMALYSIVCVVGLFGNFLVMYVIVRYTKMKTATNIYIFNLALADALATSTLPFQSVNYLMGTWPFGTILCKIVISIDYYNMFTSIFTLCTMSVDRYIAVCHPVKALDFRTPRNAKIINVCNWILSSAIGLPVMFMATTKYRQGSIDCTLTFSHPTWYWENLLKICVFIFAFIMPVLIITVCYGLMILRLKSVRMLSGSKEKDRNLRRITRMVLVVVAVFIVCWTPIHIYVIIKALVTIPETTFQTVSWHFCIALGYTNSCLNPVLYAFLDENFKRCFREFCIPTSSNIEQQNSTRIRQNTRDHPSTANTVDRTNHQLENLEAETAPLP
T1 sequence (Q63380 1-617): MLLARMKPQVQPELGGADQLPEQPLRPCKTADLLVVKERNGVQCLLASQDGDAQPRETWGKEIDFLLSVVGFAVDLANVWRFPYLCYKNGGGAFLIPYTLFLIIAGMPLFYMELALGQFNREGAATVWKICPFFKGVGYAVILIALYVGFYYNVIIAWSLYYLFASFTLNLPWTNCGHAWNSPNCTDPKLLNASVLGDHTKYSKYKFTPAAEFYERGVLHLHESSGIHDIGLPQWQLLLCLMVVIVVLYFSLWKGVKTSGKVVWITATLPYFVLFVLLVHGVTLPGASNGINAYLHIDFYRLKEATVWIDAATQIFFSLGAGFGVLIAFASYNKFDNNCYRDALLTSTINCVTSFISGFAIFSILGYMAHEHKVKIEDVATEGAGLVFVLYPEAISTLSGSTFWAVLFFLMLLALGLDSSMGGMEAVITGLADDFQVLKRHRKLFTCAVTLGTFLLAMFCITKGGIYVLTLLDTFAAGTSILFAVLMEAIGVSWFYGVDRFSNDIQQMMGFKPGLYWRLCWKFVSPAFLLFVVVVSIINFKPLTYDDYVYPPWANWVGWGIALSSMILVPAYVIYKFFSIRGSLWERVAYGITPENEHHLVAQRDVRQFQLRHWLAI
T2 sequence (P31652 whole entry): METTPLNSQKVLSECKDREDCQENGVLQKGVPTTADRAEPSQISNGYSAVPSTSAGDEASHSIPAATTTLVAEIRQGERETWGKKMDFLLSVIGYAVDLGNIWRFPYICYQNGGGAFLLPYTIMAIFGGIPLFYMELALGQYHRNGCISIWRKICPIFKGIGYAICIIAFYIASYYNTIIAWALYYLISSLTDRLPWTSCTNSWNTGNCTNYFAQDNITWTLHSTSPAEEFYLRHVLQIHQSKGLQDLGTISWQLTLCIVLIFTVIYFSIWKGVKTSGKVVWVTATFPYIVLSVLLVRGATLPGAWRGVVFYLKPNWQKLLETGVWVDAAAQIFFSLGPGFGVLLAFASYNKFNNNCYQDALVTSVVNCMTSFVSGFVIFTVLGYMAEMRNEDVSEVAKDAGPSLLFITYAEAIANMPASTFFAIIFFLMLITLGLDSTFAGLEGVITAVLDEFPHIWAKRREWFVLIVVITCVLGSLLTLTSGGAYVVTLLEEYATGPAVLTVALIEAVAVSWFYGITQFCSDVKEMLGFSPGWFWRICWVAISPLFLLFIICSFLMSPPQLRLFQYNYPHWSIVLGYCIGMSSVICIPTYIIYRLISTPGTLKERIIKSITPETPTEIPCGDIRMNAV
T3 sequence (P41146 whole entry): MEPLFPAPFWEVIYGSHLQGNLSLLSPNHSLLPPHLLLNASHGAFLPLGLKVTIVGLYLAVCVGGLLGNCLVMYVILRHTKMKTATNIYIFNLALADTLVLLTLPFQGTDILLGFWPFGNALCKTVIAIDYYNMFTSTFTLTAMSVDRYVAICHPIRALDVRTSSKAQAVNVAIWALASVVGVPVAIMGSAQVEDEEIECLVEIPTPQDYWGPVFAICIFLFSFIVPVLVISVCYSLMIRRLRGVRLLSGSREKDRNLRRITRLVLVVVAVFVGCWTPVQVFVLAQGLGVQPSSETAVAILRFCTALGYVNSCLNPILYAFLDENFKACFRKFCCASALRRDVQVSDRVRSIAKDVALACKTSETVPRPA

SMILES	Rat noradrenalin uptake inhibition [%], conc. 10 (NA transporter) [%]	Rat 5-HT uptake inhibition [%] conc. 10 (5-HT uptake) [%]	inhibition at 1 µM (human μ opiate receptor) [%]	pKi (human μ opiate receptor; [1])	pKi (ORL-1 receptor)	Human ORL1 inhibition [%] (ORL-1 receptor; test concentration not given)	pKi (human μ opiate receptor)
COc1ccccc1C(c1ccc(CN2CCCCC2)n1C)N(C)C.Cl.Cl (stereo not shown) [Example 1, [(2-Methoxyphenyl)-(1-methyl-5-piperidin-1-ylmethyl-1H-pyrrol-2-yl)-methyl]-dimethyl-amine dihydrochloride]	63	77					
COc1ccccc1C(c1ccc(CN2CCCC2)n1C)N(C)C.Cl.Cl (stereo not shown) [Example 2, [(2-Methoxyphenyl)-(1-methyl-5-pyrrolidin-1-ylmethyl-1H-pyrrol-2-yl)-methyl]-dimethyl-amine dihydrochloride]	65	76	25				
Cc1ccccc1C(c1ccc(CN2CCCCC2)n1C)N(C)C.Cl.Cl (stereo not shown) [Example 3, Dimethyl-[(1-methyl-5-piperidin-1-ylmethyl-1H-pyrrol-2-yl)-o-tolyl-methyl]-amine dihydrochloride]		30					
CN(C)C(c1ccccc1Br)c1ccc(CN2CCCCC2)n1C.Cl.Cl (stereo not shown) [Example 4, [(2-Bromo-phenyl)-(1-methyl-5-piperidin-1-ylmethyl-1H-pyrrol-2-yl)-methyl]-dimethyl-amine dihydrochloride]		57					
CN(C)C(c1ccc(Br)cc1)c1ccc(CN2CCCCC2)n1C.Cl.Cl (stereo not shown) [Example 5, [(4-Bromo-phenyl)-(1-methyl-5-piperidin-1-ylmethyl-1H-pyrrol-2-yl)-methyl]-dimethyl-amine dihydrochloride]	91	39	52	6.07			
CN(C)C(c1ccc(F)cc1)c1ccc(CN2CCOCC2)n1C.Cl.Cl (stereo not shown) [Example 6, [(4-Fluoro-phenyl)-(1-methyl-5-morpholin-4-ylmethyl-1H-pyrrol-2-yl)-methyl]-dimethyl-amine dihydrochloride]	42	53	21	6.30			
CCN(CC)Cc1ccc(C(c2ccccc2)N(C)C)n1C.Cl.Cl (stereo not shown) [Example 7, [5-(Dimethylamino-phenyl-methyl)-1-methyl-1H-pyrrol-2-ylmethyl]-diethyl-amine dihydrochloride]	52	44	50		6.38	42	
CCOC(=O)C(c1ccc(CN2CCCCC2)n1C)N1CCCCC1 (stereo not shown) [Example 8, (1-Methyl-5-piperidin-1-ylmethyl-1H-pyrrol-2-yl)-piperidin-1-yl-acetic acid ethyl ester drochloride]	33		69	6.66			
CCOC(=O)C(c1ccc(CN2CCCCC2)n1C)N1CCOCC1.Cl.Cl (stereo not shown) [Example 9, (1-Methyl-5-piperidin-1-ylmethyl-1H-pyrrol-2-yl)-morpholin-4-yl-acetic acid ethyl eastr dihydrochloride]		26					
CCOC(=O)C(c1ccc(CN(CC)CC)n1C)N1CCOCC1.Cl.Cl (stereo not shown) [Example 10, (5-Diethylaminomethyl-1-methyl-1H-pyrrol-2-yl)-morpholin-4-yl-acetic acid ethyl ester dihydrochloride]		28	84				7.15
CCOC(=O)C(c1ccc(CN2CCOCC2)n1C)N1CCCC1.Cl.Cl (stereo not shown) [Example 13, (1-Methyl-5-morpholin-4-ylmethyl-1H-pyrrol-2-yl)-pyrrolidin-1-yl-acetic acid ethyl ester dihydrochloride]		28					
